According to patent publication US8969312B2, “Low side effect pharmaceutical composition containing antituberculosis drugs” (priority 2011, dated 2015):

What follows are molecules tested against human liver microsomal cytochrome P450 2E1 (CYP2E1) (Homo sapiens, UniProt P05181) (assay: Human liver microsomal CYP2E1, chlorzoxazone 6-hydroxylation). Conditions: 16.5 μM.
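Also: chlorzoxazone added as substrate, 6-hydroxychlorzoxazone formation quantified by LC/MS/MS after 30 min at 37 °C with NADP+ regenerating system, compared against solvent control without test sample.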
Method: Microsomes prepared from human liver were used to extract cytochrome P450 2E1 (CYP2E1) and CYP2E1 inhibitors were screened from 39 Chinese medicine guiding drugs and 10 excipients. Chlorzoxazone hydroxylation is a reaction catalyzed primarily by CYP2E1 in liver. The extracted human liver microsomal cytochrome P450 2E1 (CYP2E1) was mixed with its substrate, Chlorzoxazone, and test sample was then added Inhibition of CYP2E1 activity was calculated by measuring CYP2E1 standard metabolite, 6-OH-CZX (6-Hydroxy-Chlorzoxazone), and compared with control 6-OH-CZX.
After incubation, 16 mM Chlorzoxazone and test samples were added to experimental groups; methanol:sterilized water at 1:1 ratio was added to control groups and DDTC was added to positive control groups,
Finally, cofactor 1 mM NADP^+, 10 mM G6P and 2 IU G6PD were added and reaction mixtures were transferred to pre-incubation 37° C. water bath for 1 mM and activity was measured after 30 min of reaction
At the end of reaction, 500 μl acetonitrile was added to stop the reaction followed by 5 g/mL 4-hydroxy-tobutamide after 1 mM incubation. The mixture was then centrifuged and 20 L of supernatant was diluted ten times with methanol/sterilized water and 5 L was used for LC/MS/MS analysis. […] The inhibition of CYP2E1 was then calculated by the following equation:

human liver microsomal cytochrome P450 2E1 (CYP2E1), sequence (P05181 whole entry): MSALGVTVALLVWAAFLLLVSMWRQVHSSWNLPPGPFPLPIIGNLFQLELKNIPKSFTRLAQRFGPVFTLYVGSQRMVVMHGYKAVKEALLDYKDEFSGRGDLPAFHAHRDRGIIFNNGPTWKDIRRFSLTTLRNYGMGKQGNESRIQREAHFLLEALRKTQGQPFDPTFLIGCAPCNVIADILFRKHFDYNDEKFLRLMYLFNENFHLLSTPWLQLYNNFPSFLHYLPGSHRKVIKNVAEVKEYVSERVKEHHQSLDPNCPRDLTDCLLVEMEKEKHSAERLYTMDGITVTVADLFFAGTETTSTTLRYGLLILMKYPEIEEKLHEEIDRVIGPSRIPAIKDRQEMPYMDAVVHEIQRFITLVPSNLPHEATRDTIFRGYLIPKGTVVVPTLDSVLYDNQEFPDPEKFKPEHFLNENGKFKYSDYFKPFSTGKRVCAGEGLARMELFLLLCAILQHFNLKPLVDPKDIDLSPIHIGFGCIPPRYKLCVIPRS

Molecule	Inhibition of CYP 2E1
Oc1cc(O)c2c(c1)O[C@@H](c1ccc(O)c(O)c1)[C@@H](O)C2 [(+)-Epicatechin]	66.71 ± 1.79%
O=C(O[C@@H]1Cc2c(O)cc(O)cc2O[C@@H]1c1cc(O)c(O)c(O)c1)c1cc(O)c(O)c(O)c1 [(−)-Epigallocetechin-3-gallate]	50.19 ± 1.89%
COc1ccc(O)c(C(C)(C)C)c1 [Butylated hydroxyl anisol]	−16.8 ± 0.5%
COc1ccc([C@@H]2CC(=O)c3c(O)cc(O[C@@H]4O[C@H](CO[C@@H]5O[C@@H](C)[C@H](O)[C@@H](O)[C@H]5O)[C@@H](O)[C@H](O)[C@H]4O)cc3O2)cc1O [Hesperidin]	45.32 ± 1.57%
COc1ccc([C@@H]2CC(=O)c3c(O)cc(O[C@@H]4O[C@H](CO)[C@@H](O)[C@H](O)[C@H]4O[C@@H]4O[C@@H](C)[C@H](O)[C@@H](O)[C@H]4O)cc3O2)cc1O [Neohesperidin]	42.81 ± 1.75%
O=S(=O)([O-])NC1CCCCC1.[Na+] [Sodium cyclamate]	9.4 ± 2.7%
(−)-Epicatechin-3-gallate	30.31 ± 1.27%
Magnesium stearate	2.0 ± 1.0%

Same assay, conditions: 33 μM

Molecule	Inhibition of CYP 2E1
Oc1cc(O)c2c(c1)O[C@@H](c1ccc(O)c(O)c1)[C@@H](O)C2 [(+)-Epicatechin]	52.32 ± 1.59%
O=C(O[C@@H]1Cc2c(O)cc(O)cc2O[C@@H]1c1cc(O)c(O)c(O)c1)c1cc(O)c(O)c(O)c1 [(−)-Epigallocetechin-3-gallate]	60.53 ± 2.06%
COc1ccc(O)c(C(C)(C)C)c1 [Butylated hydroxyl anisol]	−47.1 ± 5.1%
COc1ccc([C@@H]2CC(=O)c3c(O)cc(O[C@@H]4O[C@H](CO[C@@H]5O[C@@H](C)[C@H](O)[C@@H](O)[C@H]5O)[C@@H](O)[C@H](O)[C@H]4O)cc3O2)cc1O [Hesperidin]	50.91 ± 2.81%
COc1ccc([C@@H]2CC(=O)c3c(O)cc(O[C@@H]4O[C@H](CO)[C@@H](O)[C@H](O)[C@H]4O[C@@H]4O[C@@H](C)[C@H](O)[C@@H](O)[C@H]4O)cc3O2)cc1O [Neohesperidin]	48.96 ± 2.37%
O=S(=O)([O-])NC1CCCCC1.[Na+] [Sodium cyclamate]	1.7 ± 4.7%
(−)-Epicatechin-3-gallate	34.84 ± 1.72%
Magnesium stearate	3.0 ± 0.7%

Same assay, conditions: 66 μM

Molecule	Inhibition of CYP 2E1
O=C(O[C@@H]1Cc2c(O)cc(O)cc2O[C@@H]1c1cc(O)c(O)c(O)c1)c1cc(O)c(O)c(O)c1 [(−)-Epigallocetechin-3-gallate]	72.16 ± 1.02%
COc1ccc(O)c(C(C)(C)C)c1 [Butylated hydroxyl anisol]	−85.5 ± 3.9%
COc1ccc([C@@H]2CC(=O)c3c(O)cc(O[C@@H]4O[C@H](CO[C@@H]5O[C@@H](C)[C@H](O)[C@@H](O)[C@H]5O)[C@@H](O)[C@H](O)[C@H]4O)cc3O2)cc1O [Hesperidin]	58.57 ± 3.78%
COc1ccc([C@@H]2CC(=O)c3c(O)cc(O[C@@H]4O[C@H](CO)[C@@H](O)[C@H](O)[C@H]4O[C@@H]4O[C@@H](C)[C@H](O)[C@@H](O)[C@H]4O)cc3O2)cc1O [Neohesperidin]	58.70 ± 1.06%
O=S(=O)([O-])NC1CCCCC1.[Na+] [Sodium cyclamate]	9.1 ± 2.6%
(−)-Epicatechin-3-gallate	42.92 ± 0.65%
Magnesium stearate	5.0 ± 1.6%

Same assay, conditions: 0.08% (w/v)

Molecule	Inhibition of CYP 2E1
O=C([O-])c1ccccc1.[Na+] [Sodium benzoate]	7.8 ± 4.1%

Same assay, conditions: 0.167% (w/v)

Molecule	Inhibition of CYP 2E1
O=C([O-])c1ccccc1.[Na+] [Sodium benzoate]	15.8 ± 0.9%

Same assay, conditions: Table 6; minimum tested concentration (mg/L) × volume of human liver and intestine (3 L)

Molecule	Minimum Effective Dose
Oc1cc(O)c2c(c1)O[C@@H](c1ccc(O)c(O)c1)[C@@H](O)C2 [(+)-Epicatechin]	16 mg
CCCCCCCCCCCCCC(=O)OCC [Ethyl Myristate]	14 mg
COc1ccc([C@@H]2CC(=O)c3c(O)cc(O[C@@H]4O[C@H](CO[C@@H]5O[C@@H](C)[C@H](O)[C@@H](O)[C@H]5O)[C@@H](O)[C@H](O)[C@H]4O)cc3O2)cc1O [Hesperidin]	33 mg
O=c1c(O[C@@H]2O[C@H](CO)[C@H](O)[C@H](O)[C@H]2O)c(-c2ccc(O)c(O)c2)oc2cc(O)cc(O)c12 [Hyperoside]	25 mg
COc1ccc([C@@H]2CC(=O)c3c(O)cc(O[C@@H]4O[C@H](CO)[C@@H](O)[C@H](O)[C@H]4O[C@@H]4O[C@@H](C)[C@H](O)[C@@H](O)[C@H]4O)cc3O2)cc1O [Neohesperidin]	33 mg
C[C@@H]1O[C@@H](Oc2c(-c3ccc(O)c(O)c3)oc3cc(O)cc(O)c3c2=O)[C@H](O)[C@H](O)[C@H]1O [Quercitrin]	24 mg
C[C@@H]1O[C@@H](OC[C@H]2O[C@@H](Oc3c(-c4ccc(O)c(O)c4)oc4cc(O)cc(O)c4c3=O)[C@H](O)[C@@H](O)[C@@H]2O)[C@H](O)[C@H](O)[C@H]1O [Rutin]	33 mg
COc1cc(C2Oc3cc([C@H]4Oc5cc(O)cc(O)c5C(=O)[C@@H]4O)ccc3OC2CO)ccc1O (stereo partly drawn) [Silybin]	26 mg
O=C/C=C/c1ccccc1 [Trans-Cinnamaldehyde]	7 mg
O=c1cc(-c2ccc(O)cc2)oc2c([C@@H]3O[C@H](CO)[C@@H](O)[C@H](O)[C@H]3O)c(O)cc(O)c12 [Vitexin]	24 mg
(−)-Epicatechin-3-gallate	24 mg

Same assay, conditions: Table 7

Molecule	Minimum Effective Dose
COc1ccc(O)c(C(C)(C)C)c1 [Butylated hydroxyl anisol]	9 mg
O=C([O-])c1ccccc1.[Na+] [Sodium benzoate]	9 mg

Same assay, conditions: […] (w/v)

Molecule	Inhibition of CYP 2E1
O=C([O-])c1ccccc1.[Na+] [Sodium benzoate]	7.1 ± 2.0%
